According to patent US9751886B2, “4-amino-6-phenyl-6,7-dihydro[1,2,3]triazolo[1,5-A]pyrazine derivatives as inhibitors of beta-secretase (BACE)” (Janssen Pharmaceutica NV, priority 2013, dated 2017):

Legend:
[1] = system: Abeta 1-42 secreted by human neuroblastoma SKNBE2 cells expressing wild type hAPP695; test: BACE1 cellular αLisa assay in SKNBE2 cells, Abeta 1-42; type: cell-based; settings: Homo sapiens, 18 hours incubation, read-out: Cellular αLisa assay in SKNBE2 cells Abeta 42 pIC50 (converted)
Protocol: (§1) In two αLisa assays the levels of Abeta total and Abeta 1-42 produced and secreted into the medium of human neuroblastoma SKNBE2 cells are quantified. The assay is based on the human neuroblastoma SKNBE2 expressing the wild type Amyloid Precursor Protein (hAPP695). The compounds are diluted and added to these cells, incubated for 18 hours and then measurements of Abeta 1-42 and Abeta total are taken. Abeta total and Abeta 1-42 are measured by sandwich αLisa. αLisa is a sandwich assay using biotinylated antibody AbN/25 attached to streptavidin coated beads and antibody Ab4G8 or cAb42/26 conjugated acceptor beads for the detection of Abeta total and Abeta 1-42 respectively. In the presence of Abeta total or Abeta 1-42, the beads come into close proximity. The excitation of the donor beads provokes the release of singlet oxygen molecules that trigger a cascade of energy transfer in the acceptor beads, resulting in light emission.

[2] = system: brain levels of soluble Aβ42, Aβ40; test: In vivo Aβ lowering in non-transgenic rodents (MSD electrochemiluminescence); parameters: species or system mouse; settings: dose 10, s.c., untreated control = 100
Excerpt: To determine whether acute administration of an Aβ lowering agent would reduce Aβ levels in vivo, non-transgenic rodents, e.g. mice or rats were used. Animals treated with the Aβ lowering agent were examined and compared to those untreated or treated with vehicle and brain levels of soluble Aβ42, Aβ40, Aβ38, and Aβ37 were quantitated by Meso Scale Discovery's (MSD) electrochemiluminescence detection technology. Treatment periods varied from hours (h) to days and were adjusted based on the results of the Aβ lowering once a time course of onset of effect could be established.
A typical protocol for measuring Aβ lowering in vivo is shown but it is only one of many variations that could be used to optimize the levels of detectable A. For example, Aβ lowering compounds were formulated in 20% of Captisol® (a sulfo-butyl ether of β-cyclodextrin) in water or 20% hydroxypropyl β cyclodextrin. The Aβ lowering agents were administered as a single oral dose or by any acceptable route of administration to overnight fasted animals. […]
Blood was collected by decapitation and exsanguinations in EDTA-treated collection tubes. Blood was centrifuged at 1900 g for 10 minutes (min) at 4° C. and the plasma recovered and flash frozen for later analysis. The brain was removed from the cranium and hindbrain. The cerebellum was removed and the left and right hemisphere were separated. The left hemisphere was stored at −18° C. for quantitative analysis of test compound levels. The right hemisphere was rinsed with phosphate-buffered saline (PBS) buffer and immediately frozen on dry ice and stored at −80° C. until homogenization for biochemical assays.
Mouse brains from non-transgenic animals were resuspended in 8 volumes of 0.4% DEA (diethylamine)/50 mM NaCl containing protease inhibitors (Roche-11873580001 or 04693159001) per gram of tissue, e.g. for 0.158 g brain, add 1.264 ml of 0.4% DEA. All samples were homogenized in the FastPrep-24 system (MP Biomedicals) using lysing matrix D (MPBio #6913-100) at 6 m/s for 20 seconds. Homogenates were centrifuged at 20800×g for 5 min and supernatants collected. Supernatants were centrifuged at 221.300×g for 50 min. The resulting high speed supernatants were then transferred to fresh eppendorf tubes. Nine parts of supernatant were neutralized with 1 part 0.5 M Tris-HCl pH 6.8 and used to quantify Aβ.
To quantify the amount of Aβ42, Aβ40, Aβ38, and Aβ37 in the soluble fraction of the brain homogenates, simultaneous specific detection of Aβ42, Aβ40, Aβ38, and Aβ37 was performed using MSD's electro-chemiluminescence multiplex detection technology. In this assay purified monoclonal antibodies specific for Abeta37 (JRD/Aβ37/3), Abeta38 (J&JPRD/Aβ38/5), Abeta40 (JRF/cAβ40/28), and Abeta42 (JRF/cAβ(342/26) were coated on MSD 4-plex plates. Briefly, the standards (a dilution of synthetic Aβ42, Aβ40, Aβ38, and Aβ37) were prepared in 1.5 ml Eppendorf tube in Ultraculture, with final concentrations ranging from 10000 to 0.3 pg/m. The samples and standards were co-incubated with Sulfo-tag labelled JRF/rAβ/2 antibody to the N-terminus of Aβ as detector antibody. 50 μl of conjugate/sample or conjugate/standards mixtures were then added to the antibody-coated plate. The plate was allowed to incubate overnight at 4° C. in order to allow formation of the antibody-amyloid complex. Following this incubation and subsequent wash steps the assay was finished by adding read buffer according to the manufacturer's instructions (Meso Scale Discovery, Gaitherburg, Md.).
The SULFO-TAG emits light upon electrochemical stimulation initiated at the electrode. MSD Sector instrument SI6000 was used for signal read-out.
The results are shown in Table 8 (value for untreated animals as control (Ctrl) was set at 100): […]

[3] = system: Abeta total secreted by human neuroblastoma SKNBE2 cells expressing wild type hAPP695; test: BACE1 cellular αLisa assay in SKNBE2 cells, Abeta total; type: cell-based; settings: Homo sapiens, 18 hours incubation, read-out: Cellular αLisa assay in SKNBE2 cells Abetatotal pIC50 (converted)
Protocol: as §1

[4] = target: recombinant BACE1 protein (Homo sapiens (Human), UniProt P56817); test: BACE1 Biochemical FRET based assay - Method 1; settings: 1 μg/ml BACE1, 10 μM substrate, 120 min, pH 5.0; read-out: BACE1 Biochemical FRET based assay - Method 1 pIC50 (converted)
Excerpt: This assay is a Fluorescence Resonance Energy Transfer Assay (FRET) based assay. The substrate for this assay is an APP derived 13 amino acids peptide that contains the ‘Swedish’ Lys-Met/Asn-Leu mutation of the amyloid precursor protein (APP) beta-secretase cleavage site. This substrate also contains two fluorophores: (7-methoxycoumarin-4-yl) acetic acid (Mca) is a fluorescent donor with excitation wavelength at 320 nm and emission at 405 nm and 2,4-Dinitrophenyl (Dnp) is a proprietary quencher acceptor. […] Upon cleavage by BACE1, the fluorophore Mca is separated from the quenching group Dnp, restoring the full fluorescence yield of the donor. The increase in fluorescence is linearly related to the rate of proteolysis.
Briefly in a 384-well format recombinant BACE1 protein in a final concentration of 1 μg/ml is incubated for 120 minutes at room temperature with […] substrate in incubation buffer (40 mM Citrate buffer pH 5.0, 0.04% PEG, 4% DMSO) in the absence or presence of compound. Next the amount of proteolysis is directly measured by fluorescence measurement at T=0 and T=120 (excitation at 320 nm and emission at 405 nm). Results are expressed in RFU (Relative Fluorescence Units), as difference between T120 and TO.

Sequence of recombinant BACE1 protein (P56817 46-501): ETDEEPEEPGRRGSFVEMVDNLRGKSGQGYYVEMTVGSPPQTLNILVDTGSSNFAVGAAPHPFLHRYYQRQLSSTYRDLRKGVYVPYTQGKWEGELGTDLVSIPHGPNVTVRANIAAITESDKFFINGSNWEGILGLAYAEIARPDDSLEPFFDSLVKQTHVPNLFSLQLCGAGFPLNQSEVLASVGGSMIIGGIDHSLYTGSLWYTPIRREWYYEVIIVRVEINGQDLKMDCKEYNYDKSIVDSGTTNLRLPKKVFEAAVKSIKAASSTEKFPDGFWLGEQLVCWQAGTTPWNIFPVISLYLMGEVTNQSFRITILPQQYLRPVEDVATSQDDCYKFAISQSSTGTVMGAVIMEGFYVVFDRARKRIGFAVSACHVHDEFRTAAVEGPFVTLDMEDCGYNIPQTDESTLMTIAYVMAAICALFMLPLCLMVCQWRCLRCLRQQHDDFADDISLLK

## C[C@@]1(c2cc(NC(=O)c3ccc(F)cn3)ccc2F)Cn2nncc2C(N)=N1 [Compound 1, N-{3-[(6R)-4-amino-6-methyl-6,7-dihydro[1,2,3]triazolo[1,5-a]pyrazin-6-yl]-4-fluorophenyl}-5-fluoropyridine-2-carboxamide]
[1]
  IC50: 4.47 nM
[2]; 2 h after administration
  Aβ40 (% vs Ctrl)_Mean: 47 % vs Ctrl
  Aβ42 (% vs Ctrl)_Mean: 47 % vs Ctrl
[2]; 4 h after administration
  Aβ40 (% vs Ctrl)_Mean: 73 % vs Ctrl
  Aβ42 (% vs Ctrl)_Mean: 55 % vs Ctrl
[3]
  IC50: 3.24 nM
[4]
  IC50: 5.25 nM
